Measured values taken from patent US5595998A, “Pyrazoloquinolines” (priority 1994, dated 1997).

tested on: ras p21 protein; experiment: Ras p21 Nucleotide Exchange Assay (inhibition of ^3H-GDP binding to p21 ras); type: biochemical; conditions: 50 μM
Experimental: Ras p21 Nucleotide Exchange Assay
The conditions for assay of nucleotide exchange inhibitors was adapted from Hall, A. and A. J. Self. 1986 J. Biol. Chem. 261: 10963-10965, which is hereby incorporated by reference.
0.5 μM ras p21 protein was incubated in 50 μls exhange buffer (50 mM Tris-HCl pH 7.5, 5 mM MgCl2, 50 mM NaCl and […]) on ice. Compounds dissolved in dimethyl sulfoxide (DMSO) were added to the desired concentration such that the final concentration of DMSO in the reaction mixture was 2% by weight. The reaction was incubated for 5 minutes on ice and then ^3 H-GDP (final concentration was 0.25 μM) was added.
Biological data are given throughout the specification in one of two forms: either as per cent inhibitions, or as the concentration at which the test compound causes 50% inhibition (IC50) of the binding of ^3 H-GDP to the p21 ras protein.
When the above assay was run at one concentration of the test compound, then the data was given as per cent inhibition at a particular concentration. […] When the assay was run at a series of concentrations, then the data were given as IC50 's.

Compound	ras p21 Assay (per cent inhibition)
COc1ccc2nc3nn([C@@H]4O[C@H](COC(=O)c5ccccc5)[C@@H](OC(=O)c5ccccc5)[C@@H]4OCc4ccccc4)c(C)c3c(Cl)c2c1	32%

same assay, conditions: 100 μM

Compound	inhibition in the ras p21 assay
COc1ccc2nc3c(c(C)nn3[C@@H]3O[C@H](COC(=O)c4ccccc4)[C@H]4OC(C)(C)O[C@H]43)c(OCCN(C)C)c2c1	59%
COc1ccc2nc3c(c(C)nn3[C@@H]3O[C@H](COC(=O)c4ccccc4)[C@@H](OC(=O)c4ccccc4)[C@H]3OC(=O)c3ccccc3)c(OCCN(C)C)c2c1	12%
COc1ccc2nc3c(c(C)nn3[C@@H]3O[C@H](COC(=O)c4ccccc4)[C@@H](OC(=O)c4ccccc4)[C@H]3OC(=O)c3ccccc3)c(NCCN3CCOCC3)c2c1	86%

same assay, conditions: read-out: IC50 in the ras p21 assay

Compound	IC50
COc1ccc2nc3c(cc2c1)c(C)nn3[C@@H]1O[C@H](COC(=O)c2ccccc2)[C@@H](O)[C@H]1O	50 µM
Cc1nn([C@@H]2O[C@H](COC(=O)c3ccccc3)[C@@H](OC(=O)c3ccccc3)[C@H]2OC(=O)c2ccccc2)c2nc3ccc(O)cc3c(Cl)c12	10 µM
COc1ccc2nc3c(c(C)nn3[C@@H]3O[C@H](C(O)CC(=O)c4ccccc4)[C@H]4OC(=S)O[C@H]43)c(Cl)c2c1 (stereo partly shown) [Compound U]	1.5 µM

same assay, conditions: table 1; at (100), unit not given

Compound	Ras p21 Assay (per cent inhibition)
COc1ccc2nc3nn([C@@H]4O[C@H](COC(=O)c5ccccc5)[C@H]5OC(=S)O[C@H]54)c(C)c3c(Cl)c2c1 [Cl O(CO)Ph OC(S)O]	86%
COc1ccc2nc3nn([C@@H]4O[C@H](COC(=O)c5ccccc5)[C@@H](OC(C)=O)[C@H]4OC(C)=O)c(C)c3c(Cl)c2c1 [Cl O(CO)Ph OCOCH3 OCOCH3]	20%
COc1ccc2nc3nn([C@@H]4O[C@H](COC(=O)c5ccccc5)[C@@H](O)[C@H]4O)c(C)c3c(Cl)c2c1 [Cl O(CO)Ph OH OH]	49%
COc1ccc2nc3nn([C@@H]4O[C@H](CO)[C@@H](O)[C@H]4O)c(C)c3c(Cl)c2c1 [Cl OH OH OH]	0%
COc1ccc2nc3nn([C@@H]4O[C@H](CO)[C@@H](O)[C@H]4O)c(C)c3c(O)c2c1 [OH OH OH OH]	49%

same assay, conditions: table 1; concentration causing 50% inhibition of ^3H-GDP binding; read-out: Ras p21 Assay (IC50)

Compound	IC50
COc1ccc2nc3nn([C@@H]4O[C@H](COC(=O)c5ccccc5)[C@@H](OC(=O)c5ccccc5)[C@H]4OC(=O)c4ccccc4)c(C)c3c(Cl)c2c1 [Cl O(CO)Ph O(CO)Ph O(CO)Ph]	10 µM
COc1ccc2nc3nn([C@@H]4O[C@H](COC(=O)c5ccccc5)[C@@H](OC(=O)c5ccccc5)[C@H]4OC(=O)c4ccccc4)c(C)c3cc2c1 [H O(CO)Ph O(CO)Ph O(CO)Ph]	8 µM
COc1ccc2nc3nn([C@@H]4O[C@H](COC(=O)c5ccccc5)[C@@H](OC(=O)c5ccccc5)[C@H]4OC(=O)c4ccccc4)c(C)c3c(O)c2c1 [OH O(CO)Ph O(CO)Ph O(CO)Ph]	10 µM

same assay, conditions: table 2; 50 μM

Compound	ras p21 Assay (per cent inhibition)
COc1ccc2nc3c(c(C)nn3[C@@H]3O[C@H](COC(=O)CC(C)C)[C@@H](OC(=O)CC(C)C)[C@H]3OC(=O)CC(C)C)c(Cl)c2c1	33%
COc1ccc2nc3c(c(C)nn3[C@@H]3O[C@H](CN)[C@H]4OC(C)(C)O[C@H]43)c(Cl)c2c1 [NH2 OC(CH3)2 O]	38%
COc1ccc2nc3c(c(C)nn3[C@@H]3O[C@H](COC(=O)c4ccoc4)[C@@H](OC(=O)c4ccoc4)[C@H]3OC(=O)c3ccoc3)c(Cl)c2c1 [O(CO)-3-Fu O(CO)-3-Fu O(CO)-3-Fu]	49%
COc1ccc2nc3c(c(C)nn3[C@@H]3O[C@H](CNC(=O)c4ccccc4)[C@H]4OC(C)(C)O[C@H]43)c(Cl)c2c1 [O(CO)PhNH OC(CH3)2 O]	56%
COc1ccc2nc3c(c(C)nn3[C@@H]3O[C@H](CNC(=O)c4ccccc4)[C@@H](O)[C@H]3O)c(Cl)c2c1 [O(CO)PhNH OH OH]	24%
COc1ccc2nc3c(c(C)nn3[C@@H]3O[C@H](COC(=O)c4cccnc4)[C@@H](OC(=O)c4cccnc4)[C@H]3OC(=O)c3cccnc3)c(Cl)c2c1 [O(CO)Py O(CO)Py O(CO)Py]	33%

same assay, conditions: table 2; 100 μM

Compound	ras p21 Assay (per cent inhibition)
COc1ccc2nc3c(c(C)nn3[C@@H]3O[C@H](COC(=O)c4cc(C)ccc4C)[C@@H](OC(=O)c4cc(C)ccc4C)[C@H]3OC(=O)c3cc(C)ccc3C)c(Cl)c2c1	37%
COc1ccc(C(=O)OC[C@H]2O[C@@H](n3nc(C)c4c(Cl)c5cc(OC)ccc5nc43)[C@H](OC(=O)c3ccc(OC)cc3)[C@@H]2OC(=O)c2ccc(OC)cc2)cc1	44%
COc1ccc2nc3c(c(C)nn3[C@@H]3O[C@H](COCc4ccccc4)[C@@H](OCc4ccccc4)[C@H]3OCc3ccccc3)c(Cl)c2c1 [CH2 Ph CH2 Ph CH2 Ph]	35%
COc1ccc2nc3c(c(C)nn3[C@@H]3O[C@H](COC(=O)Cc4ccccc4)[C@@H](OC(=O)Cc4ccccc4)[C@H]3OC(=O)Cc3ccccc3)c(Cl)c2c1 [O(CO)CH2 Ph (CO)CH2 Ph O(CO)CH2 Ph]	62%
COc1ccc2nc3c(c(C)nn3[C@@H]3O[C@H](COC(=O)c4ccccc4)[C@@H](OCc4ccccc4)[C@H]3OCc3ccccc3)c(Cl)c2c1 [O(CO)Ph CH2 Ph CH2 Ph]	53%
COc1ccc2nc3c(c(C)nn3[C@@H]3O[C@H](COC(=O)c4ccccc4)[C@@H](OC(C)=O)[C@H]3OC(C)=O)c(Cl)c2c1 [O(CO)Ph O(CO)CH3 O(CO)CH3]	44%
COc1ccc2nc3c(c(C)nn3[C@@H]3O[C@H](COC(=O)c4ccccc4)[C@H]4OC(c5ccccc5)O[C@H]43)c(Cl)c2c1 (stereo partly shown) [O(CO)Ph OC(Ph)O]	41%
COc1ccc2nc3c(c(C)nn3[C@@H]3O[C@H](COC(=O)c4ccccc4)[C@@H](O)[C@H]3O)c(Cl)c2c1 [O(CO)Ph OH OH]	16%
COc1ccc2nc3c(c(C)nn3[C@@H]3O[C@H](COC(=O)c4ccc([N+](=O)[O-])cc4)[C@@H](OC(=O)c4ccc([N+](=O)[O-])cc4)[C@H]3OC(=O)c3ccc([N+](=O)[O-])cc3)c(Cl)c2c1 [O(CO)Ph-4-NO2 (CO)Ph-4-NO2 O(CO)Ph-4-NO2]	59%
COc1ccc2nc3c(c(C)nn3[C@@H]3O[C@H](COC(C)=O)[C@@H](OC(C)=O)[C@H]3OC(C)=O)c(Cl)c2c1 [OCOCH3 O(CO)CH3 O(CO)CH3]	3%
COc1ccc2nc3c(c(C)nn3[C@@H]3O[C@H](CO)[C@H]4OC(C)(C)O[C@H]43)c(Cl)c2c1 [OH OC(CH3)2 O]	11%

same assay, conditions: table 2; concentration causing 50% inhibition of ^3H-GDP binding; read-out: ras p21 Assay (IC50)

Compound	IC50
COc1ccc2nc3c(c(C)nn3[C@@H]3O[C@H](COC(=O)c4ccccc4)[C@H]4OC(=S)O[C@H]43)c(Cl)c2c1 [(CO)Ph OC(S)O]	15 µM
COc1ccc2nc3c(c(C)nn3[C@@H]3O[C@H](C(O)CC(=O)c4ccccc4)[C@H]4OC(=S)O[C@H]43)c(Cl)c2c1 (stereo partly shown) [Compound U]	1.5 µM
COc1ccc2nc3c(c(C)nn3[C@@H]3O[C@H](COC(=O)c4ccco4)[C@@H](OC(=O)c4ccco4)[C@H]3OC(=O)c3ccco3)c(Cl)c2c1 [O(CO)-2-Fu O(CO)-2-Fu O(CO)-2-Fu]	10 µM
COc1ccc2nc3c(c(C)nn3[C@H]3C=C[C@@H](COC(=O)c4ccccc4)O3)c(Cl)c2c1 [O(CO)Ph --]	90 µM
COc1ccc2nc3c(c(C)nn3[C@@H]3O[C@H](COC(=O)c4ccccc4)[C@@H](OC(=O)c4ccccc4)[C@H]3OC(=O)c3ccccc3)c(Cl)c2c1 [O(CO)Ph O(CO)Ph O(CO)Ph]	10 µM

same assay, conditions: table 3; 50 μM

Compound	ras 21 assay (per cent inhibition)
COc1ccc2nc3c(c(C)nn3[C@@H]3O[C@H](C(O)CC(=O)c4ccccc4)[C@@H](O)[C@H]3O)c(Cl)c2c1 (stereo partly shown)	34%
COc1ccc2nc3c(c(C)nn3-c3ccc(/C=C/C(=O)c4ccccc4)o3)c(Cl)c2c1	61%
COc1ccc2nc3c(c(C)nn3[C@H]3C=C[C@@H](C(O)CC(=O)c4ccccc4)O3)c(Cl)c2c1 (stereo partly shown)	48%

same assay, conditions: table 3; 100 μM

Compound	ras 21 assay (per cent inhibition)
COc1ccc2nc3c(c(C)nn3[C@@H]3O[C@H](/C=C/C(=O)c4ccccc4)[C@H]4OC(C)(C)O[C@H]43)c(Cl)c2c1	53%
COc1ccc2nc3c(c(C)nn3[C@H]3C=C[C@@H](CCC(=O)c4ccccc4)O3)c(Cl)c2c1	53%
COc1ccc2nc3c(c(C)nn3[C@H]3CC[C@@H](COC(=O)c4ccccc4)O3)c(Cl)c2c1	38%

same assay, conditions: table 3; concentration causing 50% inhibition of ^3H-GDP binding; read-out: ras 21 assay (IC50)

Compound	IC50
COc1ccc2nc3c(c(C)nn3[C@@H]3O[C@H](/C=C/C(=O)c4ccccc4)[C@@H](O)[C@H]3O)c(Cl)c2c1	10 µM
COc1ccc2nc3c(c(C)nn3[C@H]3C=C[C@@H](/C=C/C(=O)c4ccccc4)O3)c(Cl)c2c1	35 µM

same assay, conditions: table 4 (arabinose derivatives); 50 μM

Compound	p21 ras assay (per cent inhibition)
COc1ccc2nc3c(c(C)nn3[C@@H]3O[C@H](COCc4ccccc4)[C@@H](OCc4ccccc4)[C@@H]3OCc3ccccc3)c(Cl)c2c1 [CH2 OBn OBn OBn Cl]	31%
COc1ccc2nc3c(c(C)nn3[C@@H]3O[C@H](COC(=O)c4ccccc4)[C@@H](OC(=O)c4ccccc4)[C@@H]3OC(=O)c3ccccc3)c(Cl)c2c1 [CH2 OBz OBz OBz Cl]	17%
COc1ccc2nc3c(c(C)nn3[C@@H]3O[C@H](CO)[C@@H](O)[C@@H]3O)c(Cl)c2c1 [CH2 OH OH OH Cl]	18%

same assay, conditions: table 4 (arabinose derivatives); concentration causing 50% inhibition of ^3H-GDP binding; read-out: p21 ras assay (IC50)

Compound	IC50
COc1ccc2nc3c(cc2c1)c(C)nn3[C@@H]1O[C@H](COC(=O)c2ccccc2)[C@@H](OC(=O)c2ccccc2)[C@@H]1OC(=O)c1ccccc1 [CH2 OBz OBz OBz H]	10 µM
